In patent US20110104161A1, “COMBINATIONS VEGF(R) INHIBITORS AND HEPATOCYTE GROWTH FACTOR (C-MET) INHIBITORS FOR THE TREATMENT OF CANCER” (priority 2008, published 2011):

What was measured:
[1] = system: U-87 MG human glioblastoma tumor cells; test: U-87 MG glioblastoma subcutaneous xenograft tumor growth in nude mice (Example 2); format: in vivo
Method: U-87 MG human glioblastoma tumor cells (from ATCC) were expanded in culture, harvested and injected subcutaneously into 5-8 week old female nude mice (CD1 NU/NU, Charles River Laboratories) (n=10/group). Treatment began on day 14 (average tumor volume 200 mm^3) with a VEGFR inhibitor, AMG 706, by oral gavage (75 mg/kg/dose/once per day) or an HGF/SF:c-Met inhibitor, AMG 102 by intraperitoneal injection, (3 or 10 μg/dose/twice per week) or a combination of AMG 706 and AMG 102 at the same doses and schedules. Vehicle alone (acid water pH 2.0) and IgG2 isotype control antibody (30 μg/dose/twice per week) served as negative controls for the VEFGFR inhibitor and the HGF/SF:c-Met inhibitor, respectively. Progression of tumor growth was followed by three dimensional caliper measurements and recorded as a function of time. Initial statistical analysis was done by repeated measures analysis of variance (ANOVA), followed by Scheffé post hoc testing for multiple comparisons. […] The combination of AMG 706 and AMG 102 provided no additional benefit compared to AMG 102 monotherapy. Body weights were not negatively impacted by any treatment. Arrow and Rx denote start of dosing.

[2] = system: 786-0 human renal cell adenocarcinoma cells; test: 786-0-S4 renal cell adenocarcinoma subcutaneous xenograft tumor growth in athymic nude mice (Example 7); format: in vivo; conditions: AMG 706 75 mpk/dose PO, Amgen Compound 3 100 mpk/dose PO, or combination, once daily; p≦0.0322 (AMG 706, combination), p=0.0519 (Amgen Compound 3)
Excerpt: 786-0-S4 (786-0 human renal cell adenocarcinoma cells from ATCC that were passaged in vivo) were expanded in culture, harvested and injected subcutaneously into 9 week old female athymic nude mice (Harlan Sprague Dawley) (n=10/group). Administration of the VEGFR inhibitor, AMG 706 (75 mpk/dose, PO), or the c-Met inhibitor, Amgen Compound 3 (100 mpk/dose, PO), or a combination of AMG 706 (75 mpk/dose, PO) and Amgen Compound 3 (100 mpk/dose, PO) began on day 20 post tumor cell implantation. AMG 706 was subsequently administered once daily by oral gavage (75 mpk/dose) and Amgen Compound 3 was administered once daily by oral gavage (100 mpk/dose) for the duration of the experiment. Progression of tumor growth was assessed by three dimensional caliper measurements and recorded as a function of time. Statistical analysis was performed by repeated measures analysis of variance (RMANOVA) followed by Scheffe post hoc testing for multiple comparisons. Vehicles (Acid water (pH 2.2) and 2% HPMC 1% Tween 80) served as negative controls for AMG 706 and Amgen Compound 3, respectively. […] Body weights were not negatively impacted by any treatment. Arrow and Rx denote the start of dosing.

Compound: AMG 102: anti-HGF/SF antibody, identified in US 2005/0118643 and WO 2005/017107 as antibody 2.12.1
- tumor growth compared to the isotype control group ([1]; AMG 102 3 or 10 μg per dose twice per week i.p., p<0.0005): significantly inhibited tumor growth

Compound: CC1(C)CNc2cc(NC(=O)c3cccnc3NCc3ccncc3)ccc21 [AMG 706, N-(2,3-dihydro-3,3-dimethyl-1H-indol-6-yl)-2-[(4-pyridinylmethyl)amino]-3-pyridinecarboxamide]
- tumor growth compared to the vehicle [2]: significantly inhibited tumor growth
- tumor growth compared with vehicle control group ([1]; AMG 706 75 mg/kg once per day oral gavage): no significant effect on tumor growth

Compound: Cc1c(C(=O)Nc2ccc(Oc3ccnc(NC(=O)N4CCOCC4)c3)c(F)c2)c(=O)n(-c2ccccc2)n1C [Amgen Compound 3, N-(4-(4-(1,5-dimethyl-3-oxo-2-phenyl-2,3-dihydro-1H-pyrazole-4-carboxamido)-2-fluorophenoxy)pyridin-2-yl)morpholine-4-carboxamide]
- tumor growth compared to the vehicle [2]: did not significantly inhibit tumor growth
